Experimental data reported in US5364871A, “New thiazole derivatives, and pharmaceutical composition comprising the same” (Fujisawa Pharmaceutical Co., Ltd., priority 1989, dated 1994).

Key:
[1] = tested on: HCl-aspirin ulcer; assay: Test E: Inhibition of HCl-aspirin ulcer; assay type: in vivo, male Sprague-Dawley rats; details: length of ulcers; 32 mg/kg orally 30 minutes before aspirin (200 mg/kg in 0.2N HCl); rats
Method: Test E (Inhibition of HCl-aspirin ulcer):
Seven male Sprague-Dawley rats, aged 6 weeks and weighing about 200 g were used per group for the study on HCl-aspirin ulcer after the fast for 24 hours. Each of the test compounds (32 mg/kg) suspended in 0.1% methylcellulose solution was administered orally 30 minutes before aspirin administration. Aspirin, suspended in 0.1% methylcellulose solution containing 0.2N HCl, was administered orally at a dose of 200 mg/kg/10 ml. One hour later, the animals were sacrificed and their stomachs were removed. The stomach was then fixed with 2% formalin. The length of ulcers was measured for each animal, and percentage of inhibition was calculated by comparing the mean length of ulcers (mm) in the test animals with that in the control animals.

[2] = tested on: Helicobacter pyloridis 8008; assay: Test D: Anti-microbial activity (agar dilution method); assay type: cell-based; details: 72 h, Brucella agar plus 5% lysed horse blood, 37° C., 3 days, 10% CO2
Method: Test D (Anti-microbial activity):
In vitro antimicrobial activity was determined by the agar dilution method. Test strain was precultured in Brucella broth containing 5% horse serum at 37° C. for 3 days 10^4 cfu were inoculated with a multipoint replicater onto Brucella agar plus 5% lysed horse blood plate containing serial 2-fold dilutions of each drug at 37° C. for 3 days. Incubation was carried out in an atmosphere of 10% CO2. MIC was read after incubation as the lowest drug concentration that inhibited macroscopic colonial growth.

[3] = tested on: stress ulcer; assay: Test B: Inhibition of stress ulcer; assay type: in vivo, male Sprague-Dawley rats; details: area of ulcers, restraint and water immersion 7 hours; 32 mg/kg orally; rats
Method: Test B (Inhibition of stress ulcer):
Five male Sprague-Dawley rats, aged 7 weeks and weighing about 200 g were used per group for the study on stress ulcer after the fast for 24 hours. Each animal was immobilized in a restrain cage and immersed to a level of the xiphoid in a water bath kept 22° C. Each of the test compounds (32 mg/kg) suspended in 0.1% methylcellulose solution was administered orally just before the immobilization. Seven hours later, the animals were sacrificed and their stomachs were removed. The stomach was then fixed with 2% formalin. The area of ulcers was measured for each animal, and percentage of inhibition was calculated by comparing the mean area of ulcers (mm^2) in the test animals with that in the control animals.

[4] = tested on: Gastric secretion; assay: Test C: Gastric secretion from lumen perfused stomach in anesthetized rats; assay type: in vivo, Male Sprague-Dawley rats; details: maximal inhibition of acid output, histamine (3 mg/kg/hr) stimulated, 1 mg/kg intravenously
Method: Test C (Gastric secretion from lumen perfused stomach
Male Sprague-Dawley rats weighing about 250 g were used. Rats were deprived of food but allowed free access to water for 24 hours. The animals were anesthetized with 1.25 g/kg urethane intraperitoneally. The abdomen was opened and the gastric lumen was perfured with saline throughout the experiment. The perfusate was titrated by an antotitrator with 25 mM sodium hydroxide as a titrant. Gastric secretion was stimulated by intravenous infusion with histamine (3 mg/kg/hr). After reaching plateau, test compound (1 mg/kg) was given intravenously. Drug effect was expressed as maximal inhibition by acid output.

[5] = tested on: Gastric secretion; assay: Test A: Gastric secretion in Heidenhain pouch dogs; assay type: in vivo; details: total acid output, tetragastrin (10 μg/kg/hr) stimulated; 3.2 mg/kg orally; Beagle dogs
Method: Test A (Gastric secretion in Heidenhain pouch dogs):
Beagle dogs, weighing about 8-13 kg, were used for the study on gastric secretion. The animals were surgically provided with a vagally denervated Heidenhain pouch. One month or more later, the dogs were fasted overnight. Gastric secretion was stimulated by an intravenous infusion of tetragastrin (10 μg/kg/hr). Gastric samples were collected at 15 min intervals. After its volume was almost constant, test compound (3.2 mg/kg) suspended in 0.1% methyl cellulose solution was administered orally. Acid concentration was determined by titrating an aliquot to pH 7.0 with 0.1N sodium hydroxide solution using automatic titration (Hiranuma RAT-11 Type). Total acid output was calculated by multiplying total volume of gastric samples by acid concentration, and percentage change of total acid output was calculated by comparing with predosing value of test compound.

Compound: CCCCNC(N)=Nc1nc(-c2cccc(CNC(C)=O)n2)cs1 [(e)]
- Inhibition (%) [1]: 98.1%
- MIC [2]: 0.78 µg/mL

Compound: CCOC(=O)c1nc(-c2csc(N=C(N)N)n2)cs1 [(d)]
- Inhibition (%) [3]: 93.9%

Compound: NC(=O)NCc1cccc(-c2csc(N=C(N)N)n2)n1 [(b)]
- Inhibition (%) [4]: 98%

Compound: CC(=O)NCc1cccc(-c2csc(N=C(N)N)n2)n1 [(a)]
- Inhibition (%) [5]: 95%

Compound: NC(=O)NCc1nc(-c2csc(N=C(N)N)n2)cs1 [(c)]
- Inhibition (%) [4]: 97%
